For 20 molecules, pest or weed control, inhibition of growth and melting point results are on record in patent US11083196B2, “Microbiocidal oxadiazole derivatives” (SYNGENTA PARTICIPATIONS AG, priority 2016, dated 2021).

Molecules are shown by their SMILES.

For series [1], the system named is Puccinia recondita f. sp. tritici. Kind of series: Fungicidal activity against Puccinia recondita f. sp. tritici / wheat / leaf disc curative (brown rust). The class given is in vivo. Conditions: foliar, 144 h, wheat leaf segments cv. Kanzler, applied 1 day after inoculation, assessed 6-8 days after application, compared to untreated control. The procedure:
Leaf disks or leaf segments of various plant species are cut from plants grown in a greenhouse. The cut leaf disks or segments are placed in multiwell plates (24-well format) onto water agar. The leaf disks are sprayed with a test solution before (preventative) or after (curative) inoculation. Compounds to be tested are prepared as DMSO solutions (max. 10 mg/ml) which are diluted to the appropriate concentration with 0.025% Tween20 just before spraying. The inoculated leaf disks or segments are incubated under defined conditions (temperature, relative humidity, light, etc.) according to the respective test system. A single evaluation of disease level is carried out 3 to 14 days after inoculation, depending on the pathosystem. Percent disease control relative to the untreated check leaf disks or segments is then calculated. Wheat leaf segments cv. Kanzler are placed on agar in multiwell plates (24-well format). The leaf segments are inoculated with a spore suspension of the fungus. Plates are stored in darkness at 19° C. and 75% rh. The formulated test compound diluted in water is applied 1 day after inoculation. The leaf segments are incubated at 19° C. and 75% rh under a light regime of 12 h light/12 h darkness in a climate cabinet and the activity of a compound is assessed as percent disease control compared to untreated when an appropriate level of disease damage appears in untreated check leaf segments (6-8 days after application).

In series [2] the test system is Glomerella lagenarium (Colletotrichum lagenarium). The series is described as follows: Fungicidal activity against Glomerella lagenarium (Colletotrichum lagenarium), liquid culture / cucumber / preventative (anthracnose). The class given is cell-based. As to conditions: Colletotrichum orbiculare, liquid culture (PDB), growth inhibition measured photometrically 3-4 days after application, compared to untreated control. The procedure: Mycelia fragments or conidia suspensions of a fungus, prepared either freshly from liquid cultures of the fungus or from cryogenic storage, are directly mixed into nutrient broth. DMSO solutions of the test compound (max. 10 mg/ml) is diluted with 0.025% Tween20 by a factor of 50 and 10 μl of this solution is pipetted into a microtiter plate (96-well format). The nutrient broth containing the fungal spores/mycelia fragments is then added to give an end concentration of the tested compound. The test plates are incubated in the dark at 24° C. and 96% relative humidity. The inhibition of fungal growth is determined photometrically after 2 to 7 days, depending on the pathosystem, and percent antifungal activity relative to the untreated check is calculated. Conidia of the fungus from cryogenic storage are directly mixed into nutrient broth (PDB potato dextrose broth). After placing a (DMSO) solution of test compound into a microtiter plate (96-well format), the nutrient broth containing the fungal spores is added. The test plates are incubated at 24° C. and the inhibition of growth is measured photometrically 3-4 days after application.

Series [3] relates to Puccinia recondita f. sp. tritici. The series is described as follows: Fungicidal activity against Puccinia recondita f. sp. tritici / wheat / leaf disc preventative (brown rust). The class given is in vivo. Conditions: foliar, 168 h, wheat leaf segments cv. Kanzler, inoculated 1 day after application, assessed 7-9 days after application, compared to untreated control. The procedure: Leaf disks or leaf segments of various plant species are cut from plants grown in a greenhouse. The cut leaf disks or segments are placed in multiwell plates (24-well format) onto water agar. The leaf disks are sprayed with a test solution before (preventative) or after (curative) inoculation. Compounds to be tested are prepared as DMSO solutions (max. 10 mg/ml) which are diluted to the appropriate concentration with 0.025% Tween20 just before spraying. The inoculated leaf disks or segments are incubated under defined conditions (temperature, relative humidity, light, etc.) according to the respective test system. A single evaluation of disease level is carried out 3 to 14 days after inoculation, depending on the pathosystem. Percent disease control relative to the untreated check leaf disks or segments is then calculated. Wheat leaf segments cv. Kanzler are placed on agar in multiwell plates (24-well format) and sprayed with the formulated test compound diluted in water. The leaf disks are inoculated with a spore suspension of the fungus 1 day after application. The inoculated leaf segments are incubated at 19° C. and 75% rh under a light regime of 12 h light/12 h darkness in a climate cabinet and the activity of a compound is assessed as percent disease control compared to untreated when an appropriate level of disease damage appears in untreated check leaf segments (7-9 days after application).

The pest or weed control is how far the test organism was held down. Lower therefore signals weak suppression. For orientation: inhibition of growth means the percentage by which the read-out fell short of the control. Read a low inhibition of growth as little suppression. By melting point is commonly meant the temperature, or range, at which the solid turns liquid.

In series [1], `CCC(=O)N1CCCC1c1ccc(-c2noc(C(F)(F)F)n2)cc1` (stereo not drawn) [Compound A-37, 1-[2-[4-[5-(trifluoromethyl)-1,2,4-oxadiazol-3-yl]phenyl]pyrrolidin-1-yl]propan-1-one] returned a pest or weed control at 200 ppm of at least 80%. Besides, the inhibition of growth at 20 ppm in series [2] is at least 80%.
Turning to `CC1(C)CC(=O)NC(c2ccc(-c3noc(C(F)(F)F)n3)cc2)O1` (stereo not drawn) [Compound A-11, 6,6-dimethyl-2-[4-[5-(trifluoromethyl)-1,2,4-oxadiazol-3-yl]phenyl]-1,3-oxazinan-4-one], the pest or weed control at 200 ppm in series [1] and in series [3] was at least 80% each time. In series [2], this molecule showed an inhibition of growth at 20 ppm of at least 80%.
Molecule `O=C(NC1CSC(c2ccc(-c3noc(C(F)(F)F)n3)c(F)c2)=N1)C1CC1` (stereo not drawn) [Compound A-22, N-[2-[3-fluoro-4-[5-(trifluoromethyl)-1,2,4-oxadiazol-3-yl]phenyl]-4,5-dihydrothiazol-4-yl]cyclopropanecarboxamide] displayed a pest or weed control at 200 ppm in series [1] of at least 80%. In series [2], this molecule registered an inhibition of growth at 20 ppm of at least 80%.
For `CC(C)(C)[S+]([O-])NC1CSC(c2ccc(-c3noc(C(F)(F)F)n3)c(F)c2)=N1` (stereo not drawn) [Compound A-26, N-[2-[3-fluoro-4-[5-(trifluoromethyl)-1,2,4-oxadiazol-3-yl]phenyl]-4,5-dihydro-thiazol-4-yl]-2-methyl-propane-2-sulfinamide], the pest or weed control at 200 ppm in series [1] and in series [3] was at least 80% throughout. This molecule came in with an inhibition of growth at 20 ppm in series [2] of at least 80%.
For `Cc1cc(-c2ccc(-c3noc(C(F)(F)F)n3)cc2)on1` [Compound C-11, 3-[4-(3-methylisoxazol-5-yl)phenyl]-5-(trifluoromethyl)-1,2,4-oxadiazole], the pest or weed control at 200 ppm in series [1] and in series [3] was at least 80% in each case.
The molecule `FC(F)(F)c1nc(-c2ccc(-c3ncco3)cc2)no1` [Compound C-3, 3-(4-oxazol-2-ylphenyl)-5-(trifluoromethyl)-1,2,4-oxadiazole] gave a melting point of 94 to 97 °C. Besides, in series [1], the pest or weed control at 200 ppm is at least 80%. In series [3], this molecule had a pest or weed control at 200 ppm of at least 80%.
Regarding `CON(C)C(=O)N1CCCC1c1ccc(-c2noc(C(F)(F)F)n2)cc1` (stereo not drawn) [Compound A-31, N-methoxy-N-methyl-2-[4-[5-(trifluoromethyl)-1,2,4-oxadiazol-3-yl]phenyl]pyrrolidine-1-carboxamide], the pest or weed control at 200 ppm in series [1] and in series [3] was at least 80% each time. The same molecule registered an inhibition of growth at 20 ppm in series [2] of at least 80%.
With `COCC(=O)NC1CSC(c2ccc(-c3noc(C(F)(F)F)n3)c(F)c2)=N1` (stereo not drawn) [Compound A-25, N-[2-[3-fluoro-4-[5-(trifluoromethyl)-1,2,4-oxadiazol-3-yl]phenyl]-4,5-dihydrothiazol-4-yl]-2-methoxy-acetamide], the melting point lay in the range of 141 to 175 °C. The same molecule came in with a pest or weed control at 200 ppm in series [3] of at least 80%. The molecule further displayed an inhibition of growth at 20 ppm in series [2] of at least 80%.
For `COCC(=O)N1CCCC1c1ccc(-c2noc(C(F)(F)F)n2)cc1` (stereo not drawn) [Compound A-33, 2-methoxy-1-[2-[4-[5-(trifluoromethyl)-1,2,4-oxadiazol-3-yl]phenyl]pyrrolidin-1-yl]ethanone], the pest or weed control at 200 ppm in series [1] and in series [3] was at least 80% in each case. The inhibition of growth at 20 ppm in series [2] is at least 80%.
In the case of `Cc1csc(-c2ccc(-c3noc(C(F)(F)F)n3)cc2)n1` [Compound C-8, 3-[4-(4-methylthiazol-2-yl)phenyl]-5-(trifluoromethyl)-1,2,4-oxadiazole], the melting point fell in the range of 89 to 90 °C. In series [1], this molecule registered a pest or weed control at 200 ppm of at least 80%. The inhibition of growth at 20 ppm in series [2] was at least 80%.
`Cl.FC(F)(F)c1nc(-c2ccc(C3CCCN3)cc2)no1` (stereo not drawn) [Compound A-34, 3-(4-pyrrolidin-1-ium-2-ylphenyl)-5-(trifluoromethyl)-1,2,4-oxadiazole; chloride] yielded a melting point of 154.4 to 158.5 °C. In addition, the pest or weed control at 200 ppm in series [3] was at least 80%.
Regarding `O=C(N1CCCC1c1ccc(-c2noc(C(F)(F)F)n2)cc1)n1ccnc1` (stereo not drawn) [Compound A-35, imidazol-1-yl-[2-[4-[5-(trifluoromethyl)-1,2,4-oxadiazol-3-yl]phenyl]pyrrolidin-1-yl]methanone], the pest or weed control at 200 ppm in series [1] and in series [3] was at least 80% in each case. Also, the inhibition of growth at 20 ppm in series [2] is at least 80%.
In turn, `COC(=O)C1CC(c2ccc(-c3noc(C(F)(F)F)n3)cc2)=NO1` (stereo not drawn) [Compound A-8, methyl 3-[4-[5-(trifluoromethyl)-1,2,4-oxadiazol-3-yl]phenyl]-4,5-dihydroisoxazole-5-carboxylate] returned a pest or weed control at 200 ppm in series [3] of at least 80%. In series [2], the inhibition of growth at 20 ppm is at least 80%.
In turn, `COC(=O)N1CCCC1c1ccc(-c2noc(C(F)(F)F)n2)cc1` (stereo not drawn) [Compound A-32, methyl 2-[4-[5-(trifluoromethyl)-1,2,4-oxadiazol-3-yl]phenyl]pyrrolidine-1-carboxylate] returned a pest or weed control at 200 ppm in series [1] of at least 80%. This molecule also showed an inhibition of growth at 20 ppm in series [2] of at least 80%.
On to `CC1=NOC(C)(c2ccc(-c3noc(C(F)(F)F)n3)cc2)C1` (stereo not drawn) [Compound A-13, 3-[4-(3,5-dimethyl-4H-isoxazol-5-yl)phenyl]-5-(trifluoromethyl)-1,2,4-oxadiazole], for which the pest or weed control at 200 ppm in series [1] and in series [3] was at least 80% throughout. Also, the inhibition of growth at 20 ppm in series [2] was at least 80%.
For `CC(=O)N1CCCC1c1ccc(-c2noc(C(F)(F)F)n2)cc1` (stereo not drawn) [Compound A-38, 1-[2-[4-[5-(trifluoromethyl)-1,2,4-oxadiazol-3-yl]phenyl]pyrrolidin-1-yl]ethanone], the pest or weed control at 200 ppm in series [1] and in series [3] was at least 80% throughout. The same molecule registered an inhibition of growth at 20 ppm in series [2] of at least 80%.
Consider `O=C(Nc1cc(-c2ccc(-c3noc(C(F)(F)F)n3)cc2)ccn1)C(F)(F)F` [Compound D-19, 2,2,2-trifluoro-N-[4-[4-[5-(trifluoromethyl)-1,2,4-oxadiazol-3-yl]phenyl]-2-pyridyl]acetamide], for which the melting point is 230 to 235 °C. This molecule also returned a pest or weed control at 200 ppm in series [3] of at least 80%. The inhibition of growth at 20 ppm in series [2] was at least 80%.
In turn, `Nc1cccc(-c2ccc(-c3noc(C(F)(F)F)n3)cc2)n1` [Compound D-15, 6-[4-[5-(trifluoromethyl)-1,2,4-oxadiazol-3-yl]phenyl]pyridin-2-amine] yielded a melting point of 135 to 140 °C. The same molecule had a pest or weed control at 200 ppm in series [3] of at least 80%. In series [2], this molecule had an inhibition of growth at 20 ppm of at least 80%.
On to `Cc1ccccc1C(=O)NC1CSC(c2ccc(-c3noc(C(F)(F)F)n3)c(F)c2)=N1` (stereo not drawn) [Compound A-23, N-[2-[3-fluoro-4-[5-(trifluoromethyl)-1,2,4-oxadiazol-3-yl]phenyl]-4,5-dihydrothiazol-4-yl]-2-methyl-benzamids], for which the melting point lay in the range of 144 to 155 °C. In series [3], this molecule came in with a pest or weed control at 200 ppm of at least 80%. In addition, the inhibition of growth at 20 ppm in series [2] was at least 80%.
In turn, `FC(F)(F)c1nc(-c2ccc(-c3nc(CCl)cs3)cc2)no1` [Compound C-9, 3-[4-[4-(chloromethyl)thiazol-2-yl]phenyl]-5-(trifluoromethyl)-1,2,4-oxadiazole] showed a melting point of 91 to 92 °C. This molecule also displayed a pest or weed control at 200 ppm in series [3] of at least 80%. Further, the inhibition of growth at 20 ppm in series [2] was at least 80%.
